In patent publication US10760110B2, “Antibiotic testing and screening system” (priority 2017, dated 2020):
Where two headings read alike, the source gives them in different places.

What was measured:
[1] = tested on: K. pneumoniae NVT1001 ΔramRΔompK35/36 mutant and its revertants; test: Etest MIC, ΔramRΔompK35/36 mutant and its revertants (Table 7); type: cell-based; settings: Klebsiella pneumoniae
Text: The allelic-exchange method was used to restore the wild-type gene in the K. pneumoniae NVT1001 mutants with constructed chromosome-mediated resistance mechanisms, as described by Tsai et al.^19 Briefly, a DNA fragment of the entire wild-type gene sequence along with flanking regions was amplified from K. pneumoniae NVT1001 using PCR with specific primers. The resulting PCR fragment was digested and then cloned into pUT-KB. For homologous recombination, this plasmid was transformed into E. coli S17-1 λpir^23 via electroporation and mobilized into the K. pneumoniae NVT1001 mutant via conjugation. […] After incubation in 20 mL BHI broth for 6 hours at 37° C. in the absence of kanamycin, the fully grown cultures were spread onto LB agar plates supplemented with 10% sucrose. After the double crossover occurred, the sucrose-resistant and kanamycin-susceptible colonies were selected, and the restoration of the wild-type gene was confirmed via DNA sequencing.
(§1) The MICs of antibiotics were determined using the Etest (Biodisk AB, Sweden) according to the manufacturer's instructions. The MICs from the Etest, which fall between standard two-fold dilutions, were rounded up to the next highest two-fold value. The MICs of ceftazidime and cefotaxime against K. pneumoniae NVT1001 harbouring the pACYC177 plasmid with blaOXA-48 were further determined using a broth microdilution test according to the recommendations of the CLSI,^25 and the results were interpreted according to the breakpoints established by the CLSI in 2017.^25 Meanwhile, due to the lack of CLSI breakpoints in 2016 and 2017, the results for cephalothin were interpreted according to the breakpoints established by the CLSI in 2015,^26 and the results for moxifloxacin were interpreted according to the breakpoints established by the EUCAST in 2017.^27

[2] = tested on: K. pneumoniae NVT1001 and its ΔompK35/36 and/or ΔramR mutants; test: Etest MIC, OmpK35/36 loss and AcrAB-TolC overexpression (ΔramR) strains (Table 6); type: cell-based, Klebsiella pneumoniae
Description: as §1

[3] = tested on: K. pneumoniae NVT1001 strains with Sul/Dfr plasmids; test: Etest MIC of folate pathway inhibitors, OmpK35/36 loss, ΔramR and/or drug-resistant target enzyme (Table 15); type: cell-based, Klebsiella pneumoniae; settings: Klebsiella pneumoniae
Description: DNA fragments of the resistance genes along with their flanking regions were amplified from clinical plasmids via PCR with specific primer pairs. The resulting PCR fragments were digested and then cloned into the plasmid pACYC177 or pACYC184. The resulting plasmids were then transformed into K. pneumoniae strain NVT1001 via electroporation. The recombinant bacteria were plated onto LB agar plates containing kanamycin (50 mg/L) or chloramphenicol (50 mg/L), and the presence of the cloned gene was confirmed via PCR and DNA sequencing.
as §1

[4] = ΔramRΔompK35/36::ompK35/36 revertant
[5] = ΔramRΔompK35/36::ompK35 revertant
[6] = ΔramRΔompK35/36::ompK36 revertant
[7] = ΔramRΔompK35/36::ramR revertant
[8] = ΔramRΔompK35/36::ramR::ompK35/36 revertant
[9] = ΔramRΔompK35/36::ramR::ompK35 revertant
[10] = ΔramRΔompK35/36::ramR::ompK36 revertant
[11] = Klebsiella pneumoniae, WT, NVT1001
[12] = Klebsiella pneumoniae, Δ35, ΔompK35 mutant
[13] = Klebsiella pneumoniae, Δ35/36, ΔompK35/36 mutant
[14] = Klebsiella pneumoniae, Δ36, ΔompK36 mutant
[15] = Klebsiella pneumoniae, ΔramR mutant
[16] = Klebsiella pneumoniae, ΔramRΔ35, ΔramRΔompK35 mutant
[17] = Klebsiella pneumoniae, ΔramRΔ35/36, ΔramRΔompK35/36 mutant
[18] = Klebsiella pneumoniae, ΔramRΔ36, ΔramRΔompK36 mutant
[19] = Klebsiella pneumoniae, WT, NVT1001, read-out: MIC
[20] = ΔramRΔ35/36, ΔramRΔompK35/36 mutant

Measured: MIC

O=C(N[C@H](CO)[C@H](O)c1ccc([N+](=O)[O-])cc1)C(Cl)Cl [Chloramphenicol]
128 µg/mL: [1]; [5] | [1]; ΔramRΔompK35/36 mutant | [2]; [15] | [2]; [16] | [2]; [17] | [2]; [18]
8 µg/mL: [1]; [7] | [1]; [10] | [2]; [11] | [2]; [12] | [2]; [13] | [2]; [14]
4 µg/mL: [1]; [8] | [1]; [9]
64 µg/mL: [1]; [4] | [1]; [6]

C[C@@H]1O[C@@H]1P(=O)(O)O [Fosfomycin]
256 µg/mL: [1]; [9] | [2]; [14]
> 1020 µg/mL: [1]; ΔramRΔompK35/36 mutant | [2]; [17]
64 µg/mL: [1]; [4] | [2]; [15]
512 µg/mL: [1]; [5] | [1]; [7] | [2]; [13] | [2]; [18]
128 µg/mL: [1]; [6] | [1]; [8] | [1]; [10] | [2]; [19] | [2]; [12] | [2]; [16]

NC[C@H]1O[C@H](O[C@H]2[C@H](O)[C@@H](O[C@H]3O[C@H](CO)[C@@H](O)[C@H](N)[C@H]3O)[C@H](N)C[C@@H]2N)[C@H](O)[C@@H](O)[C@@H]1O [Kanamycin]
4 µg/mL: [2]; [13]
2 µg/mL: [2]; [19] | [2]; [12] | [2]; [14] | [2]; [15] | [2]; [16] | [2]; [17] | [2]; [18]

O=C1CN(/N=C/c2ccc([N+](=O)[O-])o2)C(=O)N1 [Nitrofurantoin]
> 512 µg/mL: [1]; [5] | [1]; [7] | [1]; [9] | [1]; ΔramRΔompK35/36 mutant | [2]; [13] | [2]; [14] | [2]; [17] | [2]; [18]
64 µg/mL: [1]; [8] | [1]; [10] | [2]; [19] | [2]; [12]
256 µg/mL: [1]; [4] | [1]; [6] | [2]; [15] | [2]; [16]

Cc1cc(NS(=O)(=O)c2ccc(N)cc2)no1 [Sulfamethoxazole]
> 1020 µg/mL: [1]; [4] | [1]; [5] | [1]; [6] | [1]; [7] | [1]; [9] | [1]; ΔramRΔompK35/36 mutant | [3]; DfrA1 on pACYC177, ΔompK35/36 mutant | [3]; DfrA1 on pACYC177, ΔompK35 mutant | [3]; DfrA1 on pACYC177, ΔompK36 mutant | [3]; DfrA1 on pACYC177, ΔramR mutant | [3]; DfrA1 on pACYC177, ΔramRΔompK35/36 mutant | [3]; DfrA1 on pACYC177, ΔramRΔompK35 mutant | [3]; DfrA1 on pACYC177, ΔramRΔompK36 mutant | [3]; DfrA16 on pACYC177, ΔompK35/36 mutant | [3]; DfrA16 on pACYC177, ΔompK35 mutant | [3]; DfrA16 on pACYC177, ΔompK36 mutant | [3]; DfrA16 on pACYC177, ΔramR mutant | [3]; DfrA16 on pACYC177, ΔramRΔompK35/36 mutant | [3]; DfrA16 on pACYC177, ΔramRΔompK35 mutant | [3]; DfrA16 on pACYC177, ΔramRΔompK36 mutant | [3]; Sul1 on pACYC177, WT (NVT1001), read-out: MIC | [3]; Sul1 on pACYC177, ΔompK35/36 mutant | [3]; Sul1 on pACYC177, ΔompK35 mutant | [3]; Sul1 on pACYC177, ΔompK36 mutant | [3]; Sul1 on pACYC177, ΔramR mutant | [3]; Sul1 on pACYC177, ΔramRΔompK35/36 mutant | [3]; Sul1 on pACYC177, ΔramRΔompK35 mutant | [3]; Sul1 on pACYC177, ΔramRΔompK36 mutant | [3]; Sul2 on pACYC177, WT (NVT1001), read-out: MIC | [3]; Sul2 on pACYC177, ΔompK35/36 mutant | [3]; Sul2 on pACYC177, ΔompK35 mutant | [3]; Sul2 on pACYC177, ΔompK36 mutant | [3]; Sul2 on pACYC177, ΔramR mutant | [3]; Sul2 on pACYC177, ΔramRΔompK35/36 mutant | [3]; Sul2 on pACYC177, ΔramRΔompK35 mutant | [3]; Sul2 on pACYC177, ΔramRΔompK36 mutant | [3]; no supplemental plasmid, ΔompK35/36 mutant | [3]; no supplemental plasmid, ΔompK36 mutant | [3]; no supplemental plasmid, ΔramR mutant | [3]; no supplemental plasmid, ΔramRΔompK35/36 mutant | [3]; no supplemental plasmid, ΔramRΔompK35 mutant | [3]; no supplemental plasmid, ΔramRΔompK36 mutant | [2]; [13] | [2]; [14] | [2]; [15] | [2]; [16] | [2]; [17] | [2]; [18]
256 µg/mL: [1]; [8] | [1]; [10] | [3]; DfrA1 on pACYC177, WT (NVT1001), read-out: MIC | [3]; DfrA16 on pACYC177, WT (NVT1001), read-out: MIC | [3]; no supplemental plasmid, WT (NVT1001), read-out: MIC | [3]; no supplemental plasmid, ΔompK35 mutant | [2]; [11] | [2]; [12]

NC[C@H]1O[C@H](O[C@H]2[C@H](O)[C@@H](O[C@H]3O[C@H](CO)[C@@H](O)[C@H](N)[C@H]3O)[C@H](N)C[C@@H]2N)[C@H](N)C[C@@H]1O [Tobramycin]
1 µg/mL: [2]; [17]
0.5 µg/mL: [2]; [19] | [2]; [12] | [2]; [13] | [2]; [14] | [2]; [15] | [2]; [16] | [2]; [18]

Colistin
1 µg/mL: [2]; WT, NVT1001 | [2]; Δ35, ΔompK35 mutant | [2]; Δ35/36, ΔompK35/36 mutant | [2]; Δ36, ΔompK36 mutant | [2]; ΔramR mutant | [2]; ΔramRΔ35, ΔramRΔompK35 mutant | [2]; [20] | [2]; ΔramRΔ36, ΔramRΔompK36 mutant

Gentamicin
0.25 µg/mL: [2]; ΔramRΔ35, ΔramRΔompK35 mutant
0.5 µg/mL: [2]; WT, NVT1001 | [2]; Δ35, ΔompK35 mutant | [2]; Δ35/36, ΔompK35/36 mutant | [2]; Δ36, ΔompK36 mutant | [2]; ΔramR mutant | [2]; [20] | [2]; ΔramRΔ36, ΔramRΔompK36 mutant

Polymyxin B
2 µg/mL: [2]; WT, NVT1001 | [2]; Δ35, ΔompK35 mutant | [2]; Δ35/36, ΔompK35/36 mutant | [2]; Δ36, ΔompK36 mutant | [2]; ΔramRΔ36, ΔramRΔompK36 mutant
1 µg/mL: [2]; ΔramR mutant | [2]; ΔramRΔ35, ΔramRΔompK35 mutant | [2]; [20]
